Results reported in US20100285145A1, “GPR 119 MODULATORS” (PFIZER INC, priority 2009, published 2010).
Several values for one entry are separate records, joined by “and”; a condition that tells them apart may be missing. Equal values may be shown once.

Tests used:
male Wistar rats = experiment: Intraperitoneal glucose tolerance test (IPGTT); assay type: in vivo; conditions: rat
Excerpt: All in vivo protocols were approved by the Pfizer's Animal Welfare Committee. Naive male Wistar rats (225-250 g body weight on receipt) were obtained from Harlan Laboratories (Indianapolis, Ind.), were pair housed in hanging plastic caging on Sani-chips sawdust bedding, and fed ad libitum on Purina 5001 chow. The rats were housed under a controlled light cycle (light from 6 am to 6 pm) at controlled temperature and humidity conditions. Rats were acclimated to the facility for at least 1 week prior to study.
Rats were assigned (n=8/group) to vehicle or one of three dose groups ([…]) according to body weight on day −0.1 to ensure that each group had equal group mean body weight values. The rats were fasted overnight in clean cages overnight (˜15 hours) prior to the intra-peritoneal glucose tolerance test. Body weights were recorded on the morning of the study (post fasting) for dose volume calculation. Blood samples were collected from all rats prior to dosing with vehicle (0.5% methylcellulose) or test compound via oral gavage (5 mL/kg). Sixty minutes later rats were bled and immediately dose with an IP dose of glucose (2 g/kg). The rats were re-bled at 15, 30, 60 and 120 minutes post-glucose load. Blood samples (˜250 μL/time point) were collected into EDTA tubes with aprotinin/DPPIVi (0.6 TIU/20 μL per mL whole blood), for the determination of plasma glucose, insulin, and total amide GLP-1 concentrations. Blood tubes were inverted several times immediately following collection and placed on ice, then spun at 14,000 rpm in a refrigerated centrifuge for 5 minutes. Plasma samples were analyzed for glucose levels using a Roche 912 clinical chemistry analyzer and plasma insulin concentrations were determined using the Alpco Ultra-Sensitive Insulin Rat Elisa.
The results are presented as mean+/−SEM (standard error of the mean) unless otherwise stated. Statistical evaluation of the data is carried out using one-way analysis of variance (ANOVA) with appropriate post-hoc analysis between vehicle and treatment group. Differences compared to vehicle with a P<0.05 were considered statistically significant using Dunnett's T-test.
IPGTT studies were performed with Example 3, either prepared as described above (dosed as a suspension in 0.5% methylcellulose) or prepared as an amorphous dispersion (25% active) with hydroxyproylmethylcellulose-acetate succinate (dosed as a suspension in 0.5% methylcellulose/0.1% polysorbate 80). […] Statistical significance is based on a comparison to the vehicle group.

human GPR119 = target: T1, human GPR119 (Homo sapiens, UniProt Q8TDV5); experiment: β-Lactamase reporter functional assay (hGPR119 HEK293-CRE beta-lactamase cells); assay type: cell-based; parameters: host or cells: HEK293-CRE beta-lactamase; Emax: dose or concentration left out as unconfirmed; conditions: for EC50: hGPR119 HEK293-CRE beta-lactamase cells, 16 h incubation, each line a separate determination, read-out: Human B-lactamase Functional EC50; for Intrinsic Activity (Human B-lactamase) / Emax: percent of maximal activity relative to standard GPR119 agonist at 10 micromolar; for Emax: read-out: Intrinsic Activity (Human B-lactamase)
T1 sequence (Q8TDV5 1-335): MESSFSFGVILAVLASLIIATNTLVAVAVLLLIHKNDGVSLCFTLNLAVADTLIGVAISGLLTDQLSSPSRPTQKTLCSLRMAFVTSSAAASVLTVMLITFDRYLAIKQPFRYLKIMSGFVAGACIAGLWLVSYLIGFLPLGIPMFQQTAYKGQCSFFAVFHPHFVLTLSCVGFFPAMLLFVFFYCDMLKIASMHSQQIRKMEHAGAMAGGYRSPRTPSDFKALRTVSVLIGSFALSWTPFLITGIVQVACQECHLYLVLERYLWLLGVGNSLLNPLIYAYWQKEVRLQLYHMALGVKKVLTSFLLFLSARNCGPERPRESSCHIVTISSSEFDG
Experimental: The assay for GPR119 agonists utilizes a cell-based (hGPR119 HEK293-CRE beta-lactamase) reporter construct where agonist activation of human GPR119 is coupled to beta-lactamase production via a cyclic AMP response element (CRE). GPR119 activity is then measured utilizing a FRET-enabled beta-lactamase substrate, CCF4-AM (Live Blazer FRET-B/G Loading kit, Invitrogen cat #K1027). Specifically, hGPR119-HEK-CRE-beta-lactamase cells (Invitrogen 2.5×10^7/mL) were removed from liquid nitrogen storage, and diluted in plating medium (Dulbecco's modified Eagle medium high glucose (DMEM; Gibco Cat # 11995-065), 10% heat inactivated fetal bovine serum (HIFBS; Sigma Cat # F4135), 1×MEM Nonessential amino acids (Gibco Cat # 15630-080), 25 mM HEPES pH 7.0 (Gibco Cat # 15630-080), 200 nM potassium clavulanate (Sigma Cat # P3494). The cell concentration was adjusted using cell plating medium and 50 microL of this cell suspension ([…]) was added into each well of a black, clear bottom, poly-d-lysine coated 384-well plate (Greiner Bio-One cat# 781946) and incubated at 37 degrees Celsius in a humidified environment containing 5% carbon dioxide. After 4 hours the plating medium was removed and replaced with 40 microL of assay medium (Assay medium is plating medium without potassium clavulanate and HIFBS). Varying concentrations of each compound to be tested was then added in a volume of 10 microL (final DMSO ≦0.5%) and the cells were incubated for 16 hours at 37 degrees Celsius in a humidified environment containing 5% carbon dioxide. Plates were removed from the incubator and allowed to equilibrate to room temperature for approximately 15 minutes. 10 microL of 6×CCF4/AM working dye solution (prepared according to instructions in the Live Blazer FRET-B/G Loading kit, Invitrogen cat #K1027) was added per well and incubated at room temperature for 2 hours in the dark. Fluorescence was measured on an EnVision fluorimetric plate reader, excitation 405 nm, emission 460 nm/535 nm. EC50 determinations were made from agonist-response curves analyzed with a curve fitting program using a 4-parameter logistic dose-response equation.

[1] = 20 mg/kg SDD (amorphous dispersion 25% active with HPMC-acetate succinate)

Row | EC50 (human GPR119) | Intrinsic Activity (Human B-lactamase) (human GPR119) | Emax (human GPR119) [%] | SMILES | further results
1 | – | – | – | Cc1c(O[C@H]2CCN(C(=O)OC3(C)CC3)C[C@H]2F)ncnc1N1CCc2ncccc21 [Example 17, 1-Methylcyclopropyl (3R,4S)-4-{[6-(2,3-dihydro-1H-pyrrolo[3,2-b]pyridin-1-yl)-5-methylpyrimidin-4-yl]oxy}-3-fluoropiperidine-1-carboxylate] | Insulin 0-60 min AUC (percent vehicle response) (male Wistar rats; 1 mg/kg oral): 126 percent vehicle response; Total Amide GLP-1 0-120 min AUC (percent vehicle response) (male Wistar rats; 1 mg/kg oral): 235 percent vehicle response; Glucose 0-120 min AUC (percent vehicle response) (male Wistar rats; 1 mg/kg oral, 60 min before IP glucose 2 g/kg): 88 percent vehicle response; Insulin 0-60 min AUC (percent vehicle response) (male Wistar rats; 10 mg/kg oral): ++162 percent vehicle response; Total Amide GLP-1 0-120 min AUC (percent vehicle response) (male Wistar rats; 10 mg/kg oral): 237 percent vehicle response; Glucose 0-120 min AUC (percent vehicle response) (male Wistar rats; 10 mg/kg oral, 60 min before IP glucose 2 g/kg): ++69 percent vehicle response
2 | 236 nM and 203 nM | 97.8% | 92.6 | Cc1c(OC2CCN(C(=O)OC(C)C)CC2)ncnc1N1CCc2ncccc21 [Example 13, Isopropyl 4-{[6-(2,3-dihydro-1H-pyrrolo[3,2-b]pyridin-1-yl)-5-methylpyrimidin-4-yl]oxy}-piperidine-1-carboxylate] | –
3 | 37.3 nM and 32.8 nM | 101% | 100 | CC(C)OC(=O)N1CCC(Oc2cc(N3CCc4cc(C(=O)N(C)C)ccc43)ncn2)CC1 [Example 9, 4-[6-(5-Dimethylcarbamoyl-2,3-dihydroindol-1-yl)-pyrimidin-4-yloxy]-piperidine-1-carboxylic acid isopropyl ester] | –
4 | 46.7 nM and 37.2 nM | 85.8% | 90 | CC(C)OC(=O)N1CCC(Oc2cc(N3CCc4cc(C#N)ccc43)ncn2)CC1 [Example 10, Isopropyl 4-{[6-(5-cyano-2,3-dihydro-1H-indol-1-yl)pyrimidin-4-yl]oxy}piperidine-1-carboxylate] | –
5 | 43.5 nM and 57.4 nM | 99.2% | 100 | Cc1c(OC2CCN(C(=O)OC(C)C)CC2)ncnc1N1CCc2cc(S(C)(=O)=O)ccc21 [Example 8, Isopropyl 4-({5-methyl-6-[5-(methylsulfonyl)-2,3-dihydro-1H-indol-1-yl]pyrimidin-4-yl}oxy)piperidine-1-carboxylate] | –
6 | 7.8 nM and 6.45 nM | 103% | 99.9 | CC(C)OC(=O)N1CCC(Oc2ncnc(N3CCc4cc(S(C)(=O)=O)ccc43)c2C#N)CC1 [Example 6, Isopropyl 4-({5-cyano-6-[5-(methylsulfonyl)-2,3-dihydro-1H-indol-1-yl]pyrimidin-4-yl}oxy)piperidine-1-carboxylate] | –
7 | 75.9 nM and 72.3 nM | 109% | 107 | CC(C)OC(=O)N1C[C@H]2COC[C@@H](C1)[C@H]2Oc1cc(N2CCc3cc(S(C)(=O)=O)ccc32)ncn1 [Example 1, Isopropyl 9-anti-({6-[5-(methylsulfonyl)-2,3-dihydro-1H-indol-1-yl]pyrimidin-4-yl}oxy)-3-oxa-7-azabicyclo[3.3.1]nonane-7-carboxylate] | –
8 | 2100 nM and 2160 nM | 121% | 110 | CC(C)OC(=O)N1CCC(Oc2cc(N3CCc4ncccc43)ncn2)CC1 [Example 12, Isopropyl 4-{[6-(2,3-dihydro-1H-pyrrolo[3,2-b]pyridin-1-yl)pyrimidin-4-yl]oxy}piperidine-1-carboxylate] | –
9 | – | – | 97.9 | Cc1c(O[C@@H]2[C@@H]3COC[C@H]2CN(C(=O)OC(C)C)C3)ncnc1N1CCc2cc(S(C)(=O)=O)ccc21 [Example 23, Isopropyl (9-syn)-9-({5-methyl-6-[5-(methylsulfonyl)-2,3-dihydro-1H-indol-1-yl]pyrimidin-4-yl}oxy)-3-oxa-7-azabicyclo[3.3.1]nonane-7-carboxylate] | –
10 | 40.7 nM | – | 103 | CC(C)OC(=O)N1CCC(Oc2cc(N3CCc4cc(S(=O)(=O)CCO)ccc43)ncn2)CC1 [Example 11, Isopropyl 4-[(6-{5-[(2-hydroxyethyl)sulfonyl]-2,3-dihydro-1H-indol-1-yl}pyrimidin-4-yl)oxy]piperidine-1-carboxylate] | –
11 | 12.6 nM and 29.7 nM and 13.8 nM and 12.3 nM | 102% and 81.8% and 93.4% and 107% | – | CC(C)OC(=O)N1CCC(Oc2cc(N3CCc4cc(S(C)(=O)=O)ccc43)ncn2)CC1 [Example 3, Isopropyl 4-({6-[5-(methylsulfonyl)-2,3-dihydro-1H-indol-1-yl]pyrimidin-4-yl}oxy)piperidine-1-carboxylate] | Glucose 0-120 min AUC (percent vehicle response) (male Wistar rats; [1]): ++89 percent vehicle response; Insulin AUC (0-60 min) (percent vehicle response) (male Wistar rats; [1]): 118 percent vehicle response; Glucose 0-120 min AUC (percent vehicle response) (male Wistar rats; 20 mg/kg in 0.5% methylcellulose, IP glucose administered 30 minutes post dose): ++85 percent vehicle response
12 | 7.2 nM and 4.09 nM and 2.82 nM | 113% and 112% | 107 | CC(C)(C)OC(=O)N1CCC(Oc2cc(N3CCc4cc(S(C)(=O)=O)ccc43)ncn2)C(F)C1 (racemic) [Example 15, tert-Butyl 3-fluoro-4-({6-[5-(methylsulfonyl)-2,3-dihydro-1H-indol-1-yl]pyrimidin-4-yl}oxy)piperidine-1-carboxylate] | –
